≈ marks a conversion by molar mass, not a printed value. Where “and” joins values, the source holds several entries; their conditions need not be identical. Equal entries are not always repeated.
What was measured:
Assay in all cases: Broth microdilution MIC, Example 7 (NCL812 and analogues)
Pseudomonas aeruginosa = format: cell-based; settings: 24 hours
VRE = format: cell-based, Enterococcus spp.; settings: for activity against VRE among analogues: MIC testing, two VRE strains
How it was run: (§1)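 Isolates were tested in duplicate, with a third run if replicates differed by more than one two-fold dilution; inoculum purity was checked on sheep blood agar.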

MRSA = format: cell-based, Staphylococcus aureus; settings: for activity against MRSA among analogues: MIC testing, two MRSA strains
How it was run: as §1

Escherichia coli = format: cell-based; settings: 24 hours
[1] = isolate VRE 1, 24 hours, 1st and 2nd replicate rows
[2] = isolate VRE 2, 24 hours, 1st and 2nd replicate rows
[3] = isolate MRSA 1, 24 hours, 1st and 2nd replicate rows
[4] = isolate MRSA 2, 24 hours, 1st and 2nd replicate rows
[5] = P. aeruginosa, duplicate lines per compound
[6] = VRE 1, 24 hours, duplicate lines per compound
[7] = VRE 2, 24 hours, duplicate lines per compound
[8] = MRSA 1, 24 hours, duplicate lines per compound
[9] = MRSA 2, 24 hours, duplicate lines per compound
[10] = E. coli, duplicate lines per compound

MIC (μg/ml) at 24 hours, P. aeruginosa (Pseudomonas aeruginosa; 1st and 2nd replicate rows) [µg/mL] | MIC (μg/ml) at 24 hours, VRE 1 (VRE; [1]) [µg/mL] | MIC (μg/ml) at 24 hours, VRE 2 (VRE; [2]) [µg/mL] | MIC (μg/ml) at 24 hours, MRSA 1 (MRSA; [3]) [µg/mL] | MIC (μg/ml) at 24 hours, MRSA 2 (MRSA; [4]) [µg/mL] | MIC (μg/ml) at 24 hours, E. coli (Escherichia coli; 1st and 2nd replicate rows) [µg/mL] | MIC (μg/ml) at 24 hours, P. aeruginosa (Pseudomonas aeruginosa; [5]) [µg/mL] | MIC (μg/ml) at 24 hours, VRE 1 (VRE; [6]) [µg/mL] | MIC (μg/ml) at 24 hours, VRE 2 (VRE; [7]) | MIC (μg/ml) at 24 hours, MRSA 1 (MRSA; [8]) [µg/mL] | MIC (μg/ml) at 24 hours, MRSA 2 (MRSA; [9]) [µg/mL] | MIC (μg/ml) at 24 hours, E. coli (Escherichia coli; [10]) [µg/mL] | Structure (SMILES) | other results
>128 | >128 | 32 (≈ 91.1 µM) | >128 | >128 | >128 |  |  |  |  |  |  | S=C(N/N=C/c1cccc(Cl)c1)N/N=C/c1cccc(Cl)c1 [NCL070] | activity against VRE among analogues (VRE): greatest activity
 |  |  |  |  |  | >128 | >128 | >128 µg/mL | >128 | >128 | >128 | Cl.N=C(NN=Cc1cccc(C(=O)O)c1)NN=Cc1cccc(C(=O)O)c1 [NCL098] | 
 |  |  |  |  |  | >128 | >128 | >128 µg/mL | >128 | >128 | >128 | Cl.N=C(N/N=C/c1ccc(O)cc1O)N/N=C/c1ccc(O)cc1O [NCL103] | 
 |  |  |  |  |  | >128 | 16 | 64 µg/mL | 128 | 128 | >128 | CC(=NNC(=N)NN)c1ccc(C(F)(F)F)cc1.Cl [NCL073] | activity against VRE among analogues (VRE): greatest activity; activity against MRSA among analogues (MRSA): greatest activity
>128 | >128 | >128 | >128 | >128 | >128 |  |  |  |  |  |  | Cc1ccccc1/C=N/NC(=O)N/N=C/c1ccccc1C [NCL018] | 
>128 | >128 | >128 | >128 | >128 | >128 |  |  |  |  |  |  | O=C(N/N=C/c1ccc(F)cc1)N/N=C/c1ccc(F)cc1 [NCL003] | 
 |  |  |  |  |  | >128 | >128 | >128 µg/mL | >128 | >128 | >128 | Cl.N=C(NC(=O)c1ccccc1)N(N=Cc1ccccc1Cl)C(=O)c1ccccc1 [NCL090] | 
>128 | >128 | >128 | >128 | >128 | >128 |  |  |  |  |  |  | Cl.N=C(N/N=C/c1ccccc1C(F)(F)F)N/N=C/c1ccccc1C(F)(F)F [NCL036] | 
>128 | >128 | 128 | >128 | >128 | >128 |  |  |  |  |  |  | Cl.N=C(N)N/N=C/c1ccccc1Cl [NCL015] | 
 |  |  |  |  |  | >128 | >128 | >128 µg/mL | >128 | >128 | >128 | Cl.N=C(NN=Cc1ccc([N+](=O)[O-])cc1)NN=Cc1ccc([N+](=O)[O-])cc1 [NCL110] | 
>128 | >128 | >128 | >128 | >128 | >128 |  |  |  |  |  |  | Cc1ccccc1/C=N/NC(=N)N.Cl [NCL045] | 
 |  |  |  |  |  | >128 | 64 | >128 µg/mL | 64 | 64 | >128 | Cl.N=C(NN=Cc1ccc(O)c(O)c1)NN=Cc1ccc(O)c(O)c1 [NCL111] | activity against VRE among analogues (VRE): greatest activity; activity against MRSA among analogues (MRSA): greatest activity
>128 | >128 | >128 | >128 | >128 | >128 |  |  |  |  |  |  | N#Cc1ccccc1/C=N/NC(=O)N/N=C/c1ccccc1C#N [NCL008] | 
>128 | >128 | >128 | >128 | >128 | >128 |  |  |  |  |  |  | NC(=O)N/N=C/c1cccc(C(F)(F)F)c1 [NCL067] | 
>128 | >128 | >128 | >128 | >128 | >128 |  |  |  |  |  |  | Cl.N#Cc1ccccc1/C=N/NC(=N)N [NCL032] | 
>128 | >128 | >128 | >128 | >128 | >128 |  |  |  |  |  |  | FC(F)(F)c1ccc(C=NNC(=S)NN=Cc2ccc(C(F)(F)F)cc2)cc1 [NCL063] | 

The next lines start with the compound.

Structure (SMILES) | MIC (μg/ml) at 24 hours, P. aeruginosa (Pseudomonas aeruginosa; 1st and 2nd replicate rows) [µg/mL] | MIC (μg/ml) at 24 hours, VRE 1 (VRE; [1]) [µg/mL] | MIC (μg/ml) at 24 hours, VRE 2 (VRE; [2]) [µg/mL] | MIC (μg/ml) at 24 hours, MRSA 1 (MRSA; [3]) [µg/mL] | MIC (μg/ml) at 24 hours, MRSA 2 (MRSA; [4]) [µg/mL] | MIC (μg/ml) at 24 hours, E. coli (Escherichia coli; 1st and 2nd replicate rows) [µg/mL] | MIC (μg/ml) at 24 hours, P. aeruginosa (Pseudomonas aeruginosa; [5]) [µg/mL] | MIC (μg/ml) at 24 hours, VRE 1 (VRE; [6]) [µg/mL] | MIC (μg/ml) at 24 hours, VRE 2 (VRE; [7]) | MIC (μg/ml) at 24 hours, MRSA 1 (MRSA; [8]) [µg/mL] | MIC (μg/ml) at 24 hours, MRSA 2 (MRSA; [9]) [µg/mL] | MIC (μg/ml) at 24 hours, E. coli (Escherichia coli; [10]) [µg/mL] | other results
Cl.N=C(N/N=C/c1ccc(Cl)nc1)N/N=C/c1ccc(Cl)nc1 [NCL 175] |  |  |  |  |  |  |  |  |  |  |  |  | MIC (μg/ml) at 24 hours, P. aeruginosa (Pseudomonas aeruginosa; P. aeruginosa): >128 µg/mL; MIC (μg/ml) at 24 hours, VRE 1 (VRE; VRE 1, 24 hours): 32 µg/mL; MIC (μg/ml) at 24 hours, VRE 2 (VRE; VRE 2, 24 hours): >128 µg/mL; MIC (μg/ml) at 24 hours, MRSA 1 (MRSA; MRSA 1, 24 hours): 64 µg/mL; MIC (μg/ml) at 24 hours, MRSA 2 (MRSA; MRSA 2, 24 hours): >128 µg/mL; MIC (μg/ml) at 24 hours, E. coli (Escherichia coli; E. coli): >128 µg/mL
Cl.N=C(NN=Cc1cnc2ccccc2c1)NN=Cc1cnc2ccccc2c1 [NCL 139] |  |  |  |  |  |  | >128 | >128 | >128 µg/mL | >128 | >128 | >128 | 
Nc1nc(N/N=C/c2ccccc2Cl)cc(N/N=C/c2ccccc2Cl)n1 [NCL205] |  |  |  |  |  |  |  |  |  |  |  |  | MIC (μg/ml) at 24 hours, P. aeruginosa (Pseudomonas aeruginosa; P. aeruginosa): >128 µg/mL; activity against VRE among analogues (VRE): greatest activity; MIC (μg/ml) at 24 hours, VRE 1 (VRE; VRE 1, 24 hours): 64 µg/mL (≈ 160 µM); MIC (μg/ml) at 24 hours, VRE 2 (VRE; VRE 2, 24 hours): >128 µg/mL; activity against MRSA among analogues (MRSA): greatest activity; MIC (μg/ml) at 24 hours, MRSA 1 (MRSA; MRSA 1, 24 hours): 4 µg/mL and 8 µg/mL; MIC (μg/ml) at 24 hours, MRSA 2 (MRSA; MRSA 2, 24 hours): 4 µg/mL and 8 µg/mL; MRSA (MRSA; bioassay ranking, MRSA): 6 µg/mL; MIC (μg/ml) at 24 hours, E. coli (Escherichia coli; E. coli): >128 µg/mL
COc1cc(C=NNC(=N)NN=Cc2cc(Br)c(OC)c(OC)c2)cc(Br)c1OC.Cl [NCL 130] |  |  |  |  |  |  | >128 | >128 | >128 µg/mL | >128 | >128 | >128 | 
CC(=NNC(=N)NN=C(C)c1ccccc1)c1ccccc1.Cl [NCL 143] |  |  |  |  |  |  | >128 | 8 | 8 µg/mL | 16 | 16 | >128 | 
Cc1ccc(/C=N/NC(=N)N/N=C/c2ccc(C)cc2)cc1.Cl [NCL 038] |  |  |  |  |  |  | >128 | 8 | 8 µg/mL | 8 | 8 | >128 | 
CC(=O)Nc1cc(Cl)ccc1C=NNC(=N)NN=Cc1ccc(Cl)cc1NC(C)=O [NCL 170] |  |  |  |  |  |  | >128 | >128 | >128 µg/mL | >128 | >128 | >128 | 
CCCc1ccc(C=NNC(=N)NN=Cc2ccc(CCC)cc2)cc1.Cl [NCL 121] |  |  |  |  |  |  | >128 | 8 | 32 µg/mL and 64 µg/mL | 32 | 32 | >128 | 
Cl.N=C(NN=C(CO)c1ccc(Cl)cc1)NN=C(CO)c1ccc(Cl)cc1 [NCL 177] |  |  |  |  |  |  |  |  |  |  |  |  | MIC (μg/ml) at 24 hours, P. aeruginosa (Pseudomonas aeruginosa; P. aeruginosa): >128 µg/mL; MIC (μg/ml) at 24 hours, VRE 1 (VRE; VRE 1, 24 hours): 4 µg/mL; MIC (μg/ml) at 24 hours, VRE 2 (VRE; VRE 2, 24 hours): 8 µg/mL; MIC (μg/ml) at 24 hours, MRSA 1 (MRSA; MRSA 1, 24 hours): 8 µg/mL; MIC (μg/ml) at 24 hours, MRSA 2 (MRSA; MRSA 2, 24 hours): 8 µg/mL; MIC (μg/ml) at 24 hours, E. coli (Escherichia coli; E. coli): >128 µg/mL
CCC(=NNC(=N)NN=C(CC)c1ccc(Cl)cc1)c1ccc(Cl)cc1.Cl [NCL 153] |  |  |  |  |  |  | >128 | 8 | 8 µg/mL | 32 | 16 | >128 | 
